What all share (assay): In vitro competitive activity-based protein profiling (gel-based, FP-Rh or HT-01 probe)
What all share (type): biochemical

Experiment [1] deals with T1, FAAH (Mus musculus, UniProt O08914).
T1 construct: Proteomes (mouse brain membrane fraction or cell lysates); from tissue; host or cells: mouse brain membrane fraction (or cell lysates, not specified)
T1 sequence (O08914 1-579): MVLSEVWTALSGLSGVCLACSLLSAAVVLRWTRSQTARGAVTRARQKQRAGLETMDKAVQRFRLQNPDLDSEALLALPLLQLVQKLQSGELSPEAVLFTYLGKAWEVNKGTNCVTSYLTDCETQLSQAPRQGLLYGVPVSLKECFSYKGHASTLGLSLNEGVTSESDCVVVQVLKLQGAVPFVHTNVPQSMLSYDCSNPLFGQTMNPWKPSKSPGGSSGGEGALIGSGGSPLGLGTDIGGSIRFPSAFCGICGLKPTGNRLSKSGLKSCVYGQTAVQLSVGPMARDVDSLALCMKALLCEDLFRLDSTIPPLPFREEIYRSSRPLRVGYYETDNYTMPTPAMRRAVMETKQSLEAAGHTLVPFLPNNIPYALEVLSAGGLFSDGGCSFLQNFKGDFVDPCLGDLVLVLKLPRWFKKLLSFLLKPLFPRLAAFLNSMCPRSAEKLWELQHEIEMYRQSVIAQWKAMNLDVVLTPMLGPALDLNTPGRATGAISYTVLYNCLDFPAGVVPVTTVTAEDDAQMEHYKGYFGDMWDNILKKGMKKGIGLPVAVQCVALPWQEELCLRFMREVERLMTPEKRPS
The note with it: for inhibition at 1 µM: 1 μM inhibitor, read-out: % Inhibition at 1 μM, B = FAAH; for inhibition at 10 µM: 10 μM inhibitor, read-out: % Inhibition at 10 μM, B = FAAH; for IC50: mouse brain membrane fraction or cell lysates, 30 min preincubation at 37° C., read-out: Mouse (IC50 value, nM) FAAH. The gist of the method:
(§1)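 Mouse brain membrane or cell lysate proteomes (1.0 mg/mL) preincubated with inhibitors 30 min at 37° C, then labelled with FP-Rh or HT-01 for 30 min at 37° C. After SDS-PAGE, activity quantified from fluorescent band intensity.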

In experiment [2] the target is T2, ABHD6 (Mus musculus, UniProt Q8R2Y0).
T2 construct: Proteomes (mouse brain membrane fraction or cell lysates); from tissue; host or cells: mouse brain membrane fraction (or cell lysates, not specified)
T2 sequence (Q8R2Y0 1-336): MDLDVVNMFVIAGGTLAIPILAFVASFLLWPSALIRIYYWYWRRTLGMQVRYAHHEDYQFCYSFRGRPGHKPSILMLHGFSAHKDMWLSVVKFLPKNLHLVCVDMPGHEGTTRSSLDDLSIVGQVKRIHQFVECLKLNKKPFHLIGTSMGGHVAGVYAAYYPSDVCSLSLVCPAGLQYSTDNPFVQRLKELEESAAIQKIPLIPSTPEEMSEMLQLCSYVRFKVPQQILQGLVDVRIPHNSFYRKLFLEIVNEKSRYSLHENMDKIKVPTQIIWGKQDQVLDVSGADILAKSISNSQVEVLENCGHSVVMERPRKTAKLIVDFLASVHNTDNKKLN
The note with it: for inhibition at 1 µM: 1 μM inhibitor, read-out: % Inhibition at 1 μM, C = ABHD6; for inhibition at 10 µM: 10 μM inhibitor, read-out: % Inhibition at 10 μM, C = ABHD6; for IC50: mouse brain membrane fraction or cell lysates, 30 min preincubation at 37° C., read-out: Mouse (IC50 value, nM) ABHD6. The procedure, abridged:
as §1

The target of experiment [3] is T3, PLA2G7 (Mus musculus, UniProt Q60963).
T3 construct: Proteomes (mouse brain membrane fraction or cell lysates); from tissue; host or cells: mouse brain membrane fraction (or cell lysates, not specified)
T3 sequence (Q60963 22-440): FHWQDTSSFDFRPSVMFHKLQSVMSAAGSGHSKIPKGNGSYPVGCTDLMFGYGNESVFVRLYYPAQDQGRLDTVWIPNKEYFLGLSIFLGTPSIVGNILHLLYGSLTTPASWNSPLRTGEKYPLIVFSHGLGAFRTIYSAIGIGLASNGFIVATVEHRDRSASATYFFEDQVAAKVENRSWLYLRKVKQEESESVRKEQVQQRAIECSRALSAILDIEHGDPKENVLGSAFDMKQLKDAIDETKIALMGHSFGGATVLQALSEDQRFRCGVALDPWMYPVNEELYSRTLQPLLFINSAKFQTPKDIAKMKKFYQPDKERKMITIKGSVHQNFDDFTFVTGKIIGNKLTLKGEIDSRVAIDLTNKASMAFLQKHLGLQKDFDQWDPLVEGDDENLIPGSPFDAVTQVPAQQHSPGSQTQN
To be noted: for inhibition at 1 µM: 1 μM inhibitor, read-out: % Inhibition at 1 μM, D = PLA2G7; for inhibition at 10 µM: 10 μM inhibitor, read-out: % Inhibition at 10 μM, D = PLA2G7. The procedure, abridged: as §1

For experiment [4], the target named is T4, MAGL (Mus musculus, UniProt O35678).
T4 construct: Proteomes (mouse brain membrane fraction or cell lysates); from tissue; host or cells: mouse brain membrane fraction (or cell lysates, not specified)
T4 sequence (O35678 1-303): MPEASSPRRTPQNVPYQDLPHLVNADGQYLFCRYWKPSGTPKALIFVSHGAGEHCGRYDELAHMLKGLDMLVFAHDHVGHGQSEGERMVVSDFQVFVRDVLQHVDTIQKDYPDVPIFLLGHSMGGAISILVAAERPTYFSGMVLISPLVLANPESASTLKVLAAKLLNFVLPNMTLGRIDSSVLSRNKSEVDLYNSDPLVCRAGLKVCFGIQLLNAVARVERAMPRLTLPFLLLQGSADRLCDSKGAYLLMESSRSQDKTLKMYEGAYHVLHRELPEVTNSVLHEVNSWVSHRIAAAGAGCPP
The note with it: for inhibition at 1 µM: 1 μM inhibitor; for inhibition at 10 µM: 10 μM inhibitor; for IC50: mouse brain membrane fraction or cell lysates, 30 min preincubation at 37° C., read-out: Mouse (IC50 value, nM) MAGL. The gist of the method: as §1

By inhibition is commonly meant the change of the read-out against control, counted positive when it falls. As usually defined, the IC50 is the concentration that inhibits the measured activity by half.

Turning to `CC(C)c1cnn(C(=O)N2CCN(Cc3c(N4CCCC4)cccc3C(F)(F)F)CC2)c1` [Example 112, (4-Isopropyl-1H-pyrazol-1-yl)(4-(2-(pyrrolidin-1-yl)-6-(trifluoromethyl)benzyl)piperazin-1-yl)methanone], the inhibition at 1 µM in experiment [1] was below 25%; in experiment [2], above 75%; in experiment [3], below 25%; in experiment [4] it was below 25%. For the same molecule, the inhibition at 10 µM was below 25% in experiment [1], above 75% in experiment [2], above 75% in experiment [3] and above 75% in experiment [4]. Moreover, the IC50 in experiment [2] lay within 100 to 1000 nM.

On to `CCN(Cc1ccc(OC)cc1)C(=O)n1cc(Cl)cn1` [Example 129, 4-Chloro-N-ethyl-N-(4-methoxybenzyl)-1H-pyrazole-1-carboxamide], for which the inhibition at 1 µM is above 75% in experiment [1], below 25% in experiment [2], below 25% in experiment [3] and below 25% in experiment [4]. Also, the inhibition at 10 µM is above 75% in experiment [1], 25 to 75% in experiment [2], below 25% in experiment [3] and above 75% in experiment [4]. For the same molecule, the IC50 in experiment [1] was 100 to 1000 nM; in experiment [2], above 1000 nM; in experiment [4] it was above 1000 nM.

With `CS(=O)(=O)N1CCCN(C(=O)n2cc(Cl)cn2)CC1` [Example 189, (4-Chloro-1H-pyrazol-1-yl)(4-(methylsulfonyl)-1,4-diazepan-1-yl)methanone], the inhibition at 1 µM in experiment [1] is above 75%; in experiment [2] it was above 75%; in experiment [3] it was below 25%; in experiment [4], below 25%. For the same molecule, the inhibition at 10 µM is above 75% in experiment [1], above 75% in experiment [2], below 25% in experiment [3] and 25 to 75% in experiment [4].

For `Cc1ccccc1N1CCN(C(=O)n2cc(C(F)(F)F)cn2)CC1` [Example 230, (4-o-Tolylpiperazin-1-yl)(4-(trifluoromethyl)-1H-pyrazol-1-yl)methanone], the inhibition at 1 µM in experiment [1], in experiment [2], in experiment [3] and in experiment [4] was above 75% throughout. Further, the inhibition at 10 µM in experiment [1], in experiment [2], in experiment [3] and in experiment [4] was above 75% each time.

For the molecule `O=C(N1CCN(Cc2c(N3CCCC3)cccc2C(F)(F)F)CC1)n1cc(C(F)(F)F)cn1` [Example 110, (4-(2-(Pyrrolidin-1-yl)-6-(trifluoromethyl)benzyl)piperazin-1-yl)(4-(trifluoromethyl)-1H-pyrazol-1-yl)methanone], the inhibition at 1 µM was below 25% in experiment [1], above 75% in experiment [2], above 75% in experiment [3] and above 75% in experiment [4]. Besides, the inhibition at 10 µM in experiment [1], in experiment [2], in experiment [3] and in experiment [4] was above 75% in each case. For the same molecule, the IC50 in experiment [1] was above 1000 nM; in experiment [2], below 100 nM; in experiment [4], below 100 nM.

In the case of `O=C(c1cnn(C(=O)N2CCN(Cc3nccs3)CC2)c1)N1CCOCC1` [Example 55, (4-(Morpholine-4-carbonyl)-1H-pyrazol-1-yl)(4-(thiazol-2-ylmethyl)piperazin-1-yl)methanone], the inhibition at 10 µM is 25 to 75% in experiment [1], above 75% in experiment [2], above 75% in experiment [3] and below 25% in experiment [4]. In addition, the figures for the inhibition at 1 µM in experiment [2] and in experiment [3] were 25 to 75% and below 25%, respectively.

As to `O=C(c1cnn(C(=O)N2CCN(Cc3ccncn3)CC2)c1)N1CCOCC1` [Example 54, (4-(Morpholine-4-carbonyl)-1H-pyrazol-1-yl)(4-(pyrimidin-4-ylmethyl)piperazin-1-yl)methanone], the inhibition at 10 µM in experiment [1] was below 25%; in experiment [2] it was 25 to 75%; in experiment [3] it was above 75%; in experiment [4], 25 to 75%. Further, the inhibition at 1 µM in experiment [2] and in experiment [3] was below 25% each time.

(Values after patent US10093630B2, “Pyrazole compounds and methods of making and using same” (ABIDE THERAPEUTICS, INC., priority 2014, dated 2018).)
